Bridge positions count the residues as written; N and C are the ends. Peptide text beside a SMILES is read from it.
How the values were obtained:
[1] = target: T1, rabbit skeletal RyR1 (native RyR1 in HSR) (Oryctolagus cuniculus, UniProt P11716); test: Planar lipid bilayer single-channel recording, native RyR1 in HSR; format: biochemical; settings: for EC50: native RyR1 in SR, toxin cis, 6-100 nM, -30 mV, [Ca^2+]free 10 μM, pH 7.2, Hill fit, means ± SE of 3–9 experiments, read-out: EC50 for Psubstate
T1 construct: tested using native RyR1 in rabbit skeletal HSR; from tissue; host or cells: rabbit fast-twitch back and leg muscles (heavy SR vesicles)
Experimental: A heavy fraction of fragmented SR vesicles (HSR) containing junctional SR was prepared from rabbit fast-twitch back and leg muscles as described previously.
(§1) Single-channel recordings of rabbit skeletal RyR1 incorporated into planar lipid bilayers were carried out as described previously. Lipid bilayers, consisting of brain tissue phosphatidylethanolamine and phosphatidylserine (1 : 1) in decane (20 mg/mL) were formed across a hole of approximately 200 μm diameter. Thinning of the bilayer was monitored by bilayer capacitance. The basic composition of the cis/trans solution consisted of 300 mM cesium methanesulfonate, 10 mM Tris/Hepes (pH 7.2), 2 mM EGTA, and 1.998 mM CaCl2 ([Ca^2+]free = 10 μM). [Ca^2+]free was calculated using the “Chelator” program (Theo Schoenmaker). Cs^+ was selected as the charge carrier to ensure precise control of free [Ca^2+], to increase the channel conductance, and to avoid any contribution from potassium channels present in the SR membrane. Chloride channels were inhibited by using the impermeant anion methanesulfonate. Incorporation of ion channels was carried out as described by Miller and Racker and confirmed by recording the characteristically high single-channel conductance of RyRs. The trans side was maintained at ground and the cis side was clamped at −30 mV relative to the ground. After addition of the IpTxa to the cis chamber, the single channel data were collected at −30 mV for 2–5 min. […] Recordings were filtered with an 8-pole low-pass Bessel filter at 1 kHz and digitalized through a Digidata 1200 series interface (Axon Instruments). Data acquisition and analysis were done with the Axon Instruments software, pClamp v7.0.
(§2) Data were analyzed using the Hill equation described previously:
(§3) (1) Psubstate=(Psubstate, max )/[1+(EC50/[IpTxa])^nH] orPo=(Po, max )/[1+(EC50/[IpTxa])^nH], where (Po, max ) is the Po observed at saturating concentrations of IpTxa, EC50 is the IpTxa concentration for which 50% of Po, max is obtained and nH is the Hill coefficient. Also, Psubstate, max is the Psubstate observed at saturating concentrations of IpTxa, EC50 is the IpTxa concentration for which 50% of Psubstate, max is obtained, and nH is the Hill coefficient. The probability of full open state of the channel (Po) was defined as the ratio of the time spent in the open state to the total time exclusive of time spent in the substate. The probability to obtain substate (Psubstate) was calculated as the time spent in the substate divided by a given total recording time. The durations of the substate were obtained by manual positioning of the cursors and constructing all point histograms. Mean duration of substate was measured by total substate time divided by total substate frequencies.
(§4) Results are given as means ± SE. Significant differences were analyzed using Student's t-test. Differences were considered to be significant when P < 0.05. The fitting of the data to the graphs were carried out using the software, Origin v7.
To examine how IpTxa modifies RyR1 activity, RyR1 in HSR incorporated in planar lipid bilayers was tested in the presence or absence of synthetic wild-type IpTxa. The chamber solutions for both cis (cytosolic) and trans (luminal) sides included 300 mM cesium methanesulfonate and 10 mM Tris-Hepes (pH 7.2). 10 μM free Ca^2+ was added to the cis side to activate the incorporated RyR1. After an addition of IpTxa to the cis chamber, the single channel gating properties were recorded at a holding potential of −30 mV for over 2 min at each toxin concentration. […] To examine the effects of IpTxa on full open state, we calculated the probability to obtain the full open state (Po) as the time spent in the open state divided by the total time exclusive of the time spent in the substate. The time for recorded Po was in the range of 30 s–2 min. […] The steady-state Po was 0.18 ± 0.02 at 10 μM Ca^2+. […]

purified rabbit RyR1 = target: T2, purified rabbit RyR1 (Oryctolagus cuniculus, UniProt P11716); test: Planar lipid bilayer single-channel recording, purified RyR1; format: biochemical; settings: for EC50 for Psubstate compared with wild type (in words): purified RyR1, 6-100 nM; for EC50: purified RyR1, toxin cis, 6-100 nM, -30 mV, 10 μM Ca^2+, Hill fit, means ± SE of 4–10 experiments, read-out: EC50 for Psubstate
T2 construct: we added IpTxa to purified RyR1 incorporated into planar lipid bilayers; from tissue; host or cells: rabbit skeletal muscle (inferred; purified from HSR)
Experimental: as §1, §2, §3, §4
To determine whether the activation of native RyR1 in SR by IpTxa was due to a direct activation of RyR1 or due to an indirect activation through other proteins associated to RyR1, we added IpTxa to purified RyR1 incorporated into planar lipid bilayers (Figure 3(a)). […] Purity of RyR1 at the final purification step was verified by Coomassie blue staining (Supplementary Figure 2).
Figure 3 Effects of IpTxa on purified rabbit RyR1 incorporated in planar lipid bilayers. (a) Single channel activity of purified RyR1 incorporated in planar lipid bilayers at 10 μM Ca^2+ with or without IpTxa (6–100 nM) was recorded. Single channel currents are shown as downward deflections from the closed level (indicated by c). The holding potential was −30 mV. (b) The plot of Po of purified RyR1 versus various concentrations of IpTxa is shown. (c) The plot of Psubstate of purified RyR1 versus various concentrations of IpTxa is shown. The results are shown as the means ± SE for 7 experiments. […]

T1 sequence (P11716 whole entry): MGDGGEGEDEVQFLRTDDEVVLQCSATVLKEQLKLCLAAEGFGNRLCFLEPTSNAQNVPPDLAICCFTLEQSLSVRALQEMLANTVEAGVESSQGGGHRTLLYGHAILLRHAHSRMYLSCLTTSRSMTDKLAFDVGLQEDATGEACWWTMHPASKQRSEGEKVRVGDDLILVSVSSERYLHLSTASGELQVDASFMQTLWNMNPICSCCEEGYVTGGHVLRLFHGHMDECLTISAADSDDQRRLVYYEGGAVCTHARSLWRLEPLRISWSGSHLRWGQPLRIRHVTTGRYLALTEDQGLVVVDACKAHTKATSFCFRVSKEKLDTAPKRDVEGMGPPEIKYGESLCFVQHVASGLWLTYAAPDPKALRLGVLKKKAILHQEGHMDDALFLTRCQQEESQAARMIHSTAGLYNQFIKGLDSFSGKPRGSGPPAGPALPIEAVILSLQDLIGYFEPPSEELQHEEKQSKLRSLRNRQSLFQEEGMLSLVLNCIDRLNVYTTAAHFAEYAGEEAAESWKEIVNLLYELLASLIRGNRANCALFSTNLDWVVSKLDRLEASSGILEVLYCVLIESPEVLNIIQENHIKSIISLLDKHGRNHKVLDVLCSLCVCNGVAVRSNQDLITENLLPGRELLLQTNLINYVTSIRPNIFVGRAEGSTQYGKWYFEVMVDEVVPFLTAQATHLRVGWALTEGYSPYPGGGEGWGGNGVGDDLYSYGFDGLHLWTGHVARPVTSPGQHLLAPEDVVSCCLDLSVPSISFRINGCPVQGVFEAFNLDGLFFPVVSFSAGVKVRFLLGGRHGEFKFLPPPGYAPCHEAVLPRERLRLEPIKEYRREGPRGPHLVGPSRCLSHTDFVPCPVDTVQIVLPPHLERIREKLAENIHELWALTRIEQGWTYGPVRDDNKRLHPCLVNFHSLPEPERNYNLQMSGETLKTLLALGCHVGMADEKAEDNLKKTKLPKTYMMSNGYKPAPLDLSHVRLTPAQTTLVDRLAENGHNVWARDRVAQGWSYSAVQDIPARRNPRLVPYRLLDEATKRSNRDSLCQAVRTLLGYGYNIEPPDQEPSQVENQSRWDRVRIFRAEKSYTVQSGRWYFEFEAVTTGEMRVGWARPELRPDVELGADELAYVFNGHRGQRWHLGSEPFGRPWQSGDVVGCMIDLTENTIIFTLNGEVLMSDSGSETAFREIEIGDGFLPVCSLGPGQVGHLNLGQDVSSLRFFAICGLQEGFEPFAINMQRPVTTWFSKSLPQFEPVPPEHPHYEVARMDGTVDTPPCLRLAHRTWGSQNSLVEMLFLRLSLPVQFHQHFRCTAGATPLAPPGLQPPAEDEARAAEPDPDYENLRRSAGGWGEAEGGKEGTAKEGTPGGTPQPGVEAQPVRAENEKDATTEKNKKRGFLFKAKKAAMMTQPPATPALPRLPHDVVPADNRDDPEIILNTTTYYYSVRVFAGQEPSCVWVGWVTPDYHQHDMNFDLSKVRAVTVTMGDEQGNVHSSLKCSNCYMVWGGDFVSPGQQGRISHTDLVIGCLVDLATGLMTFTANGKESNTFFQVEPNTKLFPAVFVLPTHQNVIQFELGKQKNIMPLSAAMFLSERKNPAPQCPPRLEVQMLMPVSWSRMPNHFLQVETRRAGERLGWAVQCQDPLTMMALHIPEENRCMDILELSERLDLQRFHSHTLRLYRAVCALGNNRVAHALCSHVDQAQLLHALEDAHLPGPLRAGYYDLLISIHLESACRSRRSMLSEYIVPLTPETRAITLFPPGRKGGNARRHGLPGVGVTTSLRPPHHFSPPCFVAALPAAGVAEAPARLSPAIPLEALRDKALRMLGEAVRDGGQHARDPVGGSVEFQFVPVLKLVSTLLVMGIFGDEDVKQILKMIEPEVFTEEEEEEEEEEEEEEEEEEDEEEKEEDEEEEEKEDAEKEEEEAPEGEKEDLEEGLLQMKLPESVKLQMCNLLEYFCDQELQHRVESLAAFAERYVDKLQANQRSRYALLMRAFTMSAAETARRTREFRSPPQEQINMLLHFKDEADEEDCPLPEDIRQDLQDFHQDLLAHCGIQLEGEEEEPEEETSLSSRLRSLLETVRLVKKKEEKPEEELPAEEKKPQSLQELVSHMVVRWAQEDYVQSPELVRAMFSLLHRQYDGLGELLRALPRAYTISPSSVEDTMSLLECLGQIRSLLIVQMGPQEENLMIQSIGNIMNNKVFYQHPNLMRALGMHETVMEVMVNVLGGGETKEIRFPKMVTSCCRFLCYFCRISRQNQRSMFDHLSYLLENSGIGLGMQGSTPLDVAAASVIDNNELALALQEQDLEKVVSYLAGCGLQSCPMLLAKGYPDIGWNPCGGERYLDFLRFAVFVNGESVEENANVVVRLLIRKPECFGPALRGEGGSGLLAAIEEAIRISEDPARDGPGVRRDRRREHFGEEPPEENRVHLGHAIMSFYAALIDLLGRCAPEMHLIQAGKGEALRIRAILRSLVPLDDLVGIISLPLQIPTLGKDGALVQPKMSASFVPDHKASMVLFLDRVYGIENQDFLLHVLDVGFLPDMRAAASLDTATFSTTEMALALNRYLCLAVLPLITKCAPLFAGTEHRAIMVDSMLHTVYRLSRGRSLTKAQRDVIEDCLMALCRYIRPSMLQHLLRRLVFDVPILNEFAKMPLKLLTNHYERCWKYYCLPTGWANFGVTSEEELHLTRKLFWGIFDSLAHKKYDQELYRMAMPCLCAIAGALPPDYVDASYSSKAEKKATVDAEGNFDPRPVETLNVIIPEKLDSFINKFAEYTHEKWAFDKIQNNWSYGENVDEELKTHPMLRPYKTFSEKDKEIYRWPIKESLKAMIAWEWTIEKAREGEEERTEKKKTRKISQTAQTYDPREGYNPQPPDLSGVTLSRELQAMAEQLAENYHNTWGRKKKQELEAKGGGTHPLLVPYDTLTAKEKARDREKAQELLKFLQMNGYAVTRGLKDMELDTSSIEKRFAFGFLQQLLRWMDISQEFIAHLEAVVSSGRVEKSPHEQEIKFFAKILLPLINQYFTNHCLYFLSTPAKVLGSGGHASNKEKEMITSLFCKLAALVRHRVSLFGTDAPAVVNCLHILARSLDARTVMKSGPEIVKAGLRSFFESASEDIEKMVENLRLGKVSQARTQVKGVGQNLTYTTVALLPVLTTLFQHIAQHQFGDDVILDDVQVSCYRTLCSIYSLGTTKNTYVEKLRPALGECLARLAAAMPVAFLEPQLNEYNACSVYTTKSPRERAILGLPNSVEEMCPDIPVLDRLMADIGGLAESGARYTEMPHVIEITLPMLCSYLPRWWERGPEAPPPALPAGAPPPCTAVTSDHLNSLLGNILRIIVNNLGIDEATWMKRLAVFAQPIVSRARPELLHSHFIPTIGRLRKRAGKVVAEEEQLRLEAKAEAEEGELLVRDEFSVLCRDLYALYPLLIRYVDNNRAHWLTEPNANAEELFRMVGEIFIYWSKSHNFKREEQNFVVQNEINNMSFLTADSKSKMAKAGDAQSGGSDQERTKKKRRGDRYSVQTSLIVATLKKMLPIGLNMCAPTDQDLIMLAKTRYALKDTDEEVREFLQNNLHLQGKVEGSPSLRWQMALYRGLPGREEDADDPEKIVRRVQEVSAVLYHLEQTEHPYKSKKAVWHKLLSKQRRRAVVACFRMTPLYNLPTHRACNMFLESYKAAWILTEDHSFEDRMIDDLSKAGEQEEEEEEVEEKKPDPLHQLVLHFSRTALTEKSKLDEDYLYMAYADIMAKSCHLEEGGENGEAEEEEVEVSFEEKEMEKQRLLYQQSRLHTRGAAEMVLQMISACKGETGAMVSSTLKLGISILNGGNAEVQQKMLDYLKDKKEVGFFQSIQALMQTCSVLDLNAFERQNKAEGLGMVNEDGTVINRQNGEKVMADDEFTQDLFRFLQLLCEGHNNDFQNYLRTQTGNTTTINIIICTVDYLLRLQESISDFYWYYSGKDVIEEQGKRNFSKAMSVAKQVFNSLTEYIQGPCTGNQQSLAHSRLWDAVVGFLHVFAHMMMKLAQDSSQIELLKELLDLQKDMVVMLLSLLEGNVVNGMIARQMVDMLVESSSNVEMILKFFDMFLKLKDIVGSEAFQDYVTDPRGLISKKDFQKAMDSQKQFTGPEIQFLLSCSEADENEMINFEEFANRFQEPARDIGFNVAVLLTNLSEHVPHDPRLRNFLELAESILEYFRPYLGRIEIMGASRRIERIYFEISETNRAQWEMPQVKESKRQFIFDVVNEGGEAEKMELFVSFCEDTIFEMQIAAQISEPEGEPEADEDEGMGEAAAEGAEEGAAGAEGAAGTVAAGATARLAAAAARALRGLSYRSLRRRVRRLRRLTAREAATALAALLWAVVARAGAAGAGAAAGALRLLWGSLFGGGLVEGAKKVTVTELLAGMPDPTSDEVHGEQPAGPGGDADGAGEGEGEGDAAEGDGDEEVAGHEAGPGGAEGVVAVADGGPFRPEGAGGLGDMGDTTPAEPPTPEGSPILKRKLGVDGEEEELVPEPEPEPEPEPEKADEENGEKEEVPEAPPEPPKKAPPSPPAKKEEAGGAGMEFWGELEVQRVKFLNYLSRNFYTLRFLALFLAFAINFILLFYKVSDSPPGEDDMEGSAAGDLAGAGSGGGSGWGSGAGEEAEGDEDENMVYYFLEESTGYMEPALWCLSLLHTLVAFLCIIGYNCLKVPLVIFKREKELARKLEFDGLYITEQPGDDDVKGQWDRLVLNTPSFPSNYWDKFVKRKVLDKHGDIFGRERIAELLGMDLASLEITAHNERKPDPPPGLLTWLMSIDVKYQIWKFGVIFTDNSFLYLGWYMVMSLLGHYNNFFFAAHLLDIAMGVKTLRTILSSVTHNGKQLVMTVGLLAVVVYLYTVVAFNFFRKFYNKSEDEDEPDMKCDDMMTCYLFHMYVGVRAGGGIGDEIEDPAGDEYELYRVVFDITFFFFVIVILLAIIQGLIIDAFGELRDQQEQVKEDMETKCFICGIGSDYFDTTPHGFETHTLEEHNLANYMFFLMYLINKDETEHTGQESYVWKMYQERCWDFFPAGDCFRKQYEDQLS
T2 sequence (P11716 whole entry): as above

SMILES | EC50 [1] [nM] | EC50 for Psubstate compared with wild type (in words) (purified rabbit RyR1) | EC50 (purified rabbit RyR1) [nM] | EC50 of Psubstate compared with wild type (in words) ([1]; native RyR1 (Figure 2(b)), Figure 5(b), purified RyR1, also cited in sentence)
CC(C)C[C@@H]1NC(=O)[C@H](Cc2c[nH]cn2)NC(=O)[C@@H]2CCCN2C(=O)[C@H](CC(C)C)NC(=O)[C@@H](NC(=O)[C@H](CC(=O)O)NC(=O)CN)CSSC[C@@H]2NC(=O)[C@@H]3CSSC[C@@H](C(=O)N[C@@H](CCCNC(=N)N)C(=O)O)NC(=O)[C@H](C)NC(=O)[C@H](CCCCN)NC(=O)[C@H](CCC(=O)O)NC(=O)[C@H](C)NC(=O)[C@H](CC(N)=O)NC(=O)[C@H]([C@@H](C)O)NC(=O)CNC(=O)[C@H](CCCNC(=N)N)NC(=O)[C@H](CCCNC(=N)N)NC(=O)[C@H](CCCCN)NC(=O)[C@H](CSSC[C@H](NC(=O)[C@H](CCCNC(=N)N)NC(=O)[C@H](CCCCN)NC1=O)C(=O)N[C@@H](CCCCN)C(=O)N[C@@H](C)C(=O)N[C@@H](CC(=O)O)C(=O)N[C@@H](CC(N)=O)C(=O)N[C@@H](CC(=O)O)C(=O)N3)NC(=O)[C@H](CCCCN)NC(=O)[C@H](CCCCN)NC(=O)CNC2=O [R31A] (H-GDCLPHLKRCKADNDCCGKKCKRRGTNAEKACR-OH; disulfide 3-17, 10-21, 16-32) | 19.2 ± 4.65 | without a significant change of EC50 | 18.2 ± 1.65 | –
CC(C)C[C@@H]1NC(=O)[C@H](Cc2c[nH]cn2)NC(=O)[C@@H]2CCCN2C(=O)[C@H](CC(C)C)NC(=O)[C@@H](NC(=O)[C@H](CC(=O)O)NC(=O)CN)CSSC[C@@H]2NC(=O)[C@@H]3CSSC[C@@H](C(=O)N[C@@H](CCCNC(=N)N)C(=O)O)NC(=O)[C@H](CCCNC(=N)N)NC(=O)[C@H](C)NC(=O)[C@H](CCC(=O)O)NC(=O)[C@H](C)NC(=O)[C@H](CC(N)=O)NC(=O)[C@H]([C@@H](C)O)NC(=O)CNC(=O)[C@H](CCCNC(=N)N)NC(=O)[C@H](CCCNC(=N)N)NC(=O)[C@H](CCCCN)NC(=O)[C@H](CSSC[C@H](NC(=O)[C@H](CCCNC(=N)N)NC(=O)[C@H](CCCCN)NC1=O)C(=O)N[C@@H](CCCCN)C(=O)N[C@@H](C)C(=O)N[C@@H](CC(=O)O)C(=O)N[C@@H](CC(N)=O)C(=O)N[C@@H](CC(=O)O)C(=O)N3)NC(=O)[C@H](CCCCN)NC(=O)[C@H](CCCCN)NC(=O)CNC2=O [K30A] (H-GDCLPHLKRCKADNDCCGKKCKRRGTNAEARCR-OH; disulfide 3-17, 10-21, 16-32) | 16.7 ± 2.86 | without a significant change of EC50 | 15.7 ± 5.99 | –
CC(C)C[C@@H]1NC(=O)[C@H](Cc2c[nH]cn2)NC(=O)[C@@H]2CCCN2C(=O)[C@H](CC(C)C)NC(=O)[C@@H](NC(=O)[C@H](CC(=O)O)NC(=O)CN)CSSC[C@@H]2NC(=O)[C@@H]3CSSC[C@@H](C(=O)N[C@@H](C)C(=O)O)NC(=O)[C@H](CCCNC(=N)N)NC(=O)[C@H](CCCCN)NC(=O)[C@H](CCC(=O)O)NC(=O)[C@H](C)NC(=O)[C@H](CC(N)=O)NC(=O)[C@H]([C@@H](C)O)NC(=O)CNC(=O)[C@H](CCCNC(=N)N)NC(=O)[C@H](CCCNC(=N)N)NC(=O)[C@H](CCCCN)NC(=O)[C@H](CSSC[C@H](NC(=O)[C@H](CCCNC(=N)N)NC(=O)[C@H](CCCCN)NC1=O)C(=O)N[C@@H](CCCCN)C(=O)N[C@@H](C)C(=O)N[C@@H](CC(=O)O)C(=O)N[C@@H](CC(N)=O)C(=O)N[C@@H](CC(=O)O)C(=O)N3)NC(=O)[C@H](CCCCN)NC(=O)[C@H](CCCCN)NC(=O)CNC2=O [R33A] (H-GDCLPHLKRCKADNDCCGKKCKRRGTNAEKRCA-OH; disulfide 3-17, 10-21, 16-32) | 16 ± 5.65 | without a significant change of EC50 | 19.3 ± 1.05 | –
CC(C)C[C@@H]1NC(=O)[C@H](Cc2c[nH]cn2)NC(=O)[C@@H]2CCCN2C(=O)[C@H](CC(C)C)NC(=O)[C@@H](NC(=O)[C@H](CC(=O)O)NC(=O)CN)CSSC[C@@H]2NC(=O)[C@@H]3CSSC[C@@H](C(=O)N[C@@H](CCCNC(=N)N)C(=O)O)NC(=O)[C@H](CCCNC(=N)N)NC(=O)[C@H](CCCCN)NC(=O)[C@H](CCC(=O)O)NC(=O)[C@H](C)NC(=O)[C@H](CC(N)=O)NC(=O)[C@H]([C@@H](C)O)NC(=O)CNC(=O)[C@H](CCCNC(=N)N)NC(=O)[C@H](CCCNC(=N)N)NC(=O)[C@H](CCCCN)NC(=O)[C@H](CSSC[C@H](NC(=O)[C@H](CCCNC(=N)N)NC(=O)[C@H](C)NC1=O)C(=O)N[C@@H](CCCCN)C(=O)N[C@@H](C)C(=O)N[C@@H](CC(=O)O)C(=O)N[C@@H](CC(N)=O)C(=O)N[C@@H](CC(=O)O)C(=O)N3)NC(=O)[C@H](CCCCN)NC(=O)[C@H](CCCCN)NC(=O)CNC2=O [K8A] (H-GDCLPHLARCKADNDCCGKKCKRRGTNAEKRCR-OH; disulfide 3-17, 10-21, 16-32) | 5.7 ± 2.86 | – | 5.29 ± 4.84 | dramatically decreased EC50 of Psubstate
CC(C)C[C@@H]1NC(=O)[C@H](Cc2c[nH]cn2)NC(=O)[C@@H]2CCCN2C(=O)[C@H](CC(C)C)NC(=O)[C@@H](NC(=O)[C@H](CC(=O)O)NC(=O)CN)CSSC[C@@H]2NC(=O)[C@@H]3CSSC[C@@H](C(=O)N[C@@H](CCCNC(=N)N)C(=O)O)NC(=O)[C@H](CCCNC(=N)N)NC(=O)[C@H](CCCCN)NC(=O)[C@H](CCC(=O)O)NC(=O)[C@H](C)NC(=O)[C@H](CC(N)=O)NC(=O)[C@H]([C@@H](C)O)NC(=O)CNC(=O)[C@H](CCCNC(=N)N)NC(=O)[C@H](CCCNC(=N)N)NC(=O)[C@H](CCCCN)NC(=O)[C@H](CSSC[C@H](NC(=O)[C@H](CCCNC(=N)N)NC(=O)[C@H](CCCCN)NC1=O)C(=O)N[C@@H](CCCCN)C(=O)N[C@@H](C)C(=O)N[C@@H](CC(=O)O)C(=O)N[C@@H](CC(N)=O)C(=O)N[C@@H](C)C(=O)N3)NC(=O)[C@H](CCCCN)NC(=O)[C@H](CCCCN)NC(=O)CNC2=O [D15A] (H-GDCLPHLKRCKADNACCGKKCKRRGTNAEKRCR-OH; disulfide 3-17, 10-21, 16-32) | 21.5 ± 1.92 | – | – | –
